Test results as given in article PMC13489962, “Small-molecule modulation of β-arrestins” (Nature, 2026).

Columns and labels:
[1] = tested on: βARR2 recruitment to β2V2R; assay: PathHunter βARR2 recruitment to β2V2R in U2OS cells; assay type: cell-based; conditions: 50 μM (recruitment), 25 μM (internalization); n = 1–2; Reviewer Fig. R2
Method: β-Arrestin recruitment to the agonist-activated receptor (β2V2R) was measured using the DiscoveRx PathHunter β-arrestin assay, which uses enzyme fragment complementation. […] Upon agonist-induced recruitment of βARR2 to β2V2R, the β-gal fragments complement to form a functional enzyme, generating a measurable chemiluminescent signal. The signal intensity correlates directly with the extent of βARR2 recruitment. U2OS cells co-expressing β2V2R and βARR2 were plated at a density of 25,000 cells per well in white, clear-bottom 96-well plates 24 h before treatment. On the day of the experiment, cells were treated with either a single dose (50 μM) or varying concentrations of a specific β-arrestin modulator or vehicle control in Hanks’ balanced salt solution (HBSS) (Sigma-Aldrich) with 20 mM HEPES (pH 7.4) and 0.05% BSA. Cells were incubated at 37 °C, 5% CO2, and about 100% relative humidity for about 30 min, followed by stimulation with either 10 nM Iso or a serial dilution of Iso for 60 min at 37 °C. After agonist stimulation, PathHunter reagents were added, and cells were incubated for another 60 min at ambient temperature. Luminescence signals were measured using a CLARIOstar microplate reader (BMG Labtech).

[2] = tested on: βARR1 MCL site mutants coupling to pβ2V2R; assay: [3H]-Fen binding with βARR1 MCL site mutants; assay type: biochemical, Rattus norvegicus; conditions: mutations P131A, D135A, K138A, C140A and E283A
Method: The expression and purification of β-arrestins have been described previously[44],[62]–[64]. In brief, E. coli BL21 (DE3) pLysS cells (New England Biolabs: C2527I) carrying pGEX4T1-Rattus norvegicus βARR1 or βARR2 construct, with their C terminus truncated (at amino acid 393 or 394, respectively), were cultured in Terrific Broth (Teknova) medium at 37 °C. After OD600 reached 0.6–0.8, the cells were induced with 0.1 mM isopropyl-β-D-thiogalactopyranoside (IPTG) at 18 °C overnight. […] Eluted fractions were analysed by SDS–PAGE, pooled, concentrated using 30 kDa MWCO Amicon Ultra-15 Centrifugal Filter devices, flash-frozen in liquid nitrogen, and stored in aliquots at −80 °C. […] Protein concentrations for each protein were determined by ultraviolet absorption at 280 nm and extinction coefficients estimated using the ExPASy ProtParam tool[67].
(§1) To assess the effects of β-arrestin modulators on β-arrestin- or Gαs–βγ-promoted high-affinity agonist binding, [^3H]-Fen binding assays were performed using membranes from Sf9 cells expressing phosphorylated β2V2R (pβ2V2R) or β2AR[28]. […] Bound [^3H]-Fen was extracted overnight in scintillation fluid and quantified by scintillation counting. Specific binding was calculated by subtracting nonspecific from total binding.

[3] = target: T1, βARR1 coupling to pβ2V2R (Rattus norvegicus, UniProt P29066); assay: [3H]-Fen high-affinity agonist binding promoted by βARR1 at pβ2V2R; assay type: biochemical; conditions: βARR1 2 μM, [3H]-Fen 6 nM, read-out: inhibition of βARR1-mediated stabilization of the high-affinity β2V2R state
T1 construct: βARR1 or βARR2 construct, with their C terminus truncated (at amino acid 393 or 394, respectively); GST (pGEX4T1) (N, cleaved yes); made in house; host or cells: βARR1: E. coli BL21 (DE3) pLysS; receptor: Sf9 membranes, co-expressed with GRK2–CAAX
Method: The N-terminal Flag-tagged T4 lysozyme fusion-β2V2R construct (β2AR residues 1–341 fused to V2R residues 328–372), bearing a TEV cleavage site, was co-expressed with GRK2–CAAX (membrane-anchored GRK2) or wild-type β2AR in Sf9 insect cells using the Baculovirus Expression System, as described previously[44],[62],[63],[68],[69]. At 66 h after infection, cells expressing T4L–β2V2R were stimulated with 20 μM isoproterenol for 20 min at 37 °C to induce receptor phosphorylation (pβ2V2R), while β2AR-expressing cells remained untreated. All cells were washed extensively to remove residual agonist. For membrane preparation from these cells, briefly, cells were resuspended in cold homogenization buffer (75 mM Tris-HCl, pH 7.4, 2 mM EDTA, and cOmplete protease inhibitor) and collected by centrifugation at 500g for 5 min at 4 °C. […]
as §1

T1 sequence (P29066 1-393): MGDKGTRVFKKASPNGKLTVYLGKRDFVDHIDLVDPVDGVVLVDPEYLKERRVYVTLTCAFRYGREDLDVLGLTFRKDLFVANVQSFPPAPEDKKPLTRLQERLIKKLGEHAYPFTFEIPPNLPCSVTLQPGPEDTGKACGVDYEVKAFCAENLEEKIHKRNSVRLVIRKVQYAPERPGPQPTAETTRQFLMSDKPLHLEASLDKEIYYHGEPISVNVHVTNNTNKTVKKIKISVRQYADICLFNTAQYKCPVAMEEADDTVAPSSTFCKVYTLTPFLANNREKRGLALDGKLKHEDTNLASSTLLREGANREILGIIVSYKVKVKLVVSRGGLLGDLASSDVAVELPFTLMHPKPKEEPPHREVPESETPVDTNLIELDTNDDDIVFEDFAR

C=C1C(=O)[C@]23[C@H](O)[C@H]1CC[C@H]2[C@@]12CO[C@]3(O)[C@@H](O)[C@@H]1C(C)(C)CC[C@@H]2O [Cmpd-5, (1S,4aR,5S,6S,6aR,9S,11aS,11bS,14R)-1,5,6,14-tetrahydroxy−4,4-dimethyl-8-methylenedecahydro-1H-6,11b-(epoxymethano)-6a,9-methanocyclohepta[a]naphthalen-7(8H)-one]
inhibition across a full Iso dose range, βarr2 recruitment and receptor internalization [1]: robust
effect of mutation on Cmpd-5 inhibition of βARR1 coupling [2]: negligible effects
inhibition at 100 µM [3]: ~40%
